# Columns and labels:
# [1] = in vivo; details: mouse, po, Swiss mice, 14 days observation
# Description: The acute toxicity was determined by administering by oral route the substances under exam to Swiss mice; average weight 20.-+.2 g. The observation period was 14 days. 10 Animals were used for each tested dose.
# [2] = system: Gastric acid secretion; experiment: Gastric acid secretion in the pylorus ligated rat (antisecretory activity); assay type: in vivo, rat (male Sprague-Dawley); details: 4 hours
# Description: Gastric acid secretion in the pylorus ligated rat
# Male Sprague-Dawley rats weighing 150.-+.5 g fasting since 48 hours were used. Pylorus ligation was performed for 4 hours. The products under exam were administered by the oral route immediately after the ligation.
# [3] = system: muscarinic receptor; experiment: Interaction with muscarinic receptor (displacement of 3H-QNB bound to rat cerebral cortex receptors); assay type: binding; parameters: unit not given here
# [4] = system: Carbachole salivation; experiment: Carbachole salivation in the rat; assay type: in vivo, rat (male Sprague-Dawley); details: 62.5 mg/kg p.o., one hour before carbachole 1 mg/kg i.p.
# Description: Carbachole salivation in the rat
# The method cited by R. Turner: "Parasympatholytic Agents" in R. Turner "Screening Methods in Pharmacology" pag. 137. Academic Press. New York and London 1965, with slight changes, was used.
# Male Sprague-Dawley rats, average weight 150.-+.5 g, fasting since 24 hours, were used.
# The salivation was induced by the intraperitoneal administration of 1 mg/kg of carbachole.
# The products under exam were administered orally one hour before the cholinergic stimulus.
# [5] = concentration 10^-5 (unit not given)
# [6] = concentration 10^-6 (unit not given)
# [7] = concentration 10^-7 (unit not given)
smiles,measurement,setting,value
"CC(C(=O)N1c2ccccc2C(=O)Nc2cccnc21)N1CCCCC1 (stereo not shown) [Compound 1, 11-[2-(Piperidin-1-yl)propionyl]-5,11-dihydro-6H-pyrido-[2,3-b][1,4]benzodiazepin-6-one]",LD50 at 336 h,[1],> 500 mg/kg
same,% Antisecretory activity,[2]; 6.25 mg/kg p.o.,10.3%
same,% Antisecretory activity,[2]; 12.5 mg/kg p.o.,36.3%
same,% Antisecretory activity,[2]; 25 mg/kg p.o.,71.3%
same,Interaction with muscarinic receptor,[3]; [5],46.6
same,Interaction with muscarinic receptor,[3]; [6],3.96
same,Interaction with muscarinic receptor,[3]; [7],0
same,Carbachol salivation - % protection,[4],0%
"O=C1Nc2cccnc2N(C(=O)CN2CCCCCC2)c2ccccc21 [Compound 2, 11-[2-(Hexamethylenimino)acetyl]-5,11-dihydro-6H-pyrido[2,3-b][1,4]benzodiazepin-6-one]",LD50 at 336 h,[1],> 500 mg/kg
same,% Antisecretory activity,[2]; 6.25 mg/kg p.o.,11.6%
same,% Antisecretory activity,[2]; 12.5 mg/kg p.o.,33.7%
same,% Antisecretory activity,[2]; 25 mg/kg p.o.,55.2%
same,Interaction with muscarinic receptor,[3]; [5],93.3
same,Interaction with muscarinic receptor,[3]; [6],49.7
same,Interaction with muscarinic receptor,[3]; [7],12.8
same,Carbachol salivation - % protection,[4],100%
"O=C1Nc2cccnc2N(C(=O)CCN2CCCCCC2)c2ccccc21 [Compound 4, 11-[3-(Hexamethylenimino)propionyl]-5,11-dihydro-6H-pyrido[2,3-b][1,4]benzodiazepin-6-one]",LD50 at 336 h,[1],< 500 mg/kg
same,% Antisecretory activity,[2]; 6.25 mg/kg p.o.,21.5%
same,% Antisecretory activity,[2]; 12.5 mg/kg p.o.,50.2%
same,% Antisecretory activity,[2]; 25 mg/kg p.o.,64.1%
same,Interaction with muscarinic receptor,[3]; [5],94.4
same,Interaction with muscarinic receptor,[3]; [6],54.3
same,Interaction with muscarinic receptor,[3]; [7],3.0
same,Carbachol salivation - % protection,[4],50%
"CC1CCCCN1CC(=O)N1c2ccccc2NC(=O)c2cccnc21 (stereo not shown) [Compound 5, 11-[2-(2-Methylpiperidin-1-yl)acetyl]-6,11-dihydro-5H-pyrido[2,3-b][1,5]benzodiazepin-5-one]",LD50 at 336 h,[1],< 500 mg/kg
same,% Antisecretory activity,[2]; 6.25 mg/kg p.o.,18.7%
same,% Antisecretory activity,[2]; 12.5 mg/kg p.o.,58.4%
same,% Antisecretory activity,[2]; 25 mg/kg p.o.,66.7%
same,Interaction with muscarinic receptor,[3]; [5],96.9
same,Interaction with muscarinic receptor,[3]; [6],71.7
same,Interaction with muscarinic receptor,[3]; [7],14.6
same,Carbachol salivation - % protection,[4],100%
"CN1CCN(CC(=O)N2c3ccccc3C(=S)Nc3cccnc32)CC1 [Compound 6, 11-[2-(4-Methylpiperazin-1-yl)acetyl]-5,11-dihydro-6H-pyrido[2,3-b][1,4]benzodiazepin-6-thione]",LD50 at 336 h,[1],< 500 mg/kg
same,% Antisecretory activity,[2]; 6.25 mg/kg p.o.,7.2%
same,% Antisecretory activity,[2]; 12.5 mg/kg p.o.,25.8%
same,% Antisecretory activity,[2]; 25 mg/kg p.o.,51.4%
same,Interaction with muscarinic receptor,[3]; [5],85.5
same,Interaction with muscarinic receptor,[3]; [6],43.9
same,Interaction with muscarinic receptor,[3]; [7],7.5
same,Carbachol salivation - % protection,[4],10%
CC1(C)CCCN(CC(=O)N2c3ccccc3C(=O)Nc3cccnc32)C1 [Compound 10],LD50 at 336 h,[1],> 500 mg/kg
same,% Antisecretory activity,[2]; 6.25 mg/kg p.o.,12.4%
same,% Antisecretory activity,[2]; 12.5 mg/kg p.o.,24.7%
same,% Antisecretory activity,[2]; 25 mg/kg p.o.,41.5%
same,Interaction with muscarinic receptor,[3]; [5],30.2
same,Interaction with muscarinic receptor,[3]; [6],0.2
same,Interaction with muscarinic receptor,[3]; [7],0
same,Carbachol salivation - % protection,[4],0%
"CN1CCN(CC(=O)N2c3ccccc3C(=O)Nc3cccnc32)CC1 [P, Pirenzepine, reference compound]",% Antisecretory activity,[2]; 6.25 mg/kg p.o.,7.9%
same,% Antisecretory activity,[2]; 12.5 mg/kg p.o.,46.0%
same,% Antisecretory activity,[2]; 25 mg/kg p.o.,71.5%
same,Carbachol salivation - % protection,[4],10%
